In one test the target is glyoxal oxidase (Glo1) (Ustilago maydis, UniProt Q7Z868). In words: Enzyme assay for identifying glyoxal oxidase inhibitors (Amplex Red/HRP coupled, cells of overproducer strain Bay-CA95). It counts as biochemical. Conditions: negative decimal logarithm of molar IC50; intact Bay-CA95 cells, 10 mM methylglyoxal, 9 hours at 30° C., fluorescence 550/595 nm; read-out: pI50 (converted). An excerpt:
The activity of glyoxal oxidase in vitro and in vivo, for example in the U. maydis cells according to the invention produced as described in Example 3 (CA95) can be detected on the basis of the conversion of the substrate methylglyoxal, exploiting the following reaction:
Methylglyoxal+O2→pyruvate+H2O2
H2O2+10-acetyl-3,7-dihydroxyphenoxazine (Amplex Red®)→resorufin+H2O
Amplex Red® reacts with H2O2 in a 1:1 stoichiometry, giving rise to resorufin (7-hydroxy-3H-phenoxazin-3-one sodium salt). The fluorescence is measured at an excitation wavelength of 550 nm and an emission of 595 nm. A substrate concentration of 10 mM methylglyoxal was employed in the assay. When using intact cells, it must be taken into consideration that the glyoxal oxidase concentration is low and that the reaction must therefore be allowed to proceed longer. Thus, for example, very good readings were obtained after incubation for 9 hours.
The enzyme assay was carried out in a total volume of 50 μl. To this end, the substances to be assayed were introduced in 10 μl substrate solution (50 mM methylglyoxal, 2.5% (v/v) DMSO) into a 384 microtitre plate. The KM value of glyoxal oxidase for methylglyoxal had previously been determined (cf. FIG. 14). The concentration of the candidate compounds to be tested for an inhibitory effect was such that the final concentration of the substances in the assay carried out was 10 μM. In the next step, 20 μl of cell solultion (cells of the overproducer strain Bay-CA95 (OD600=5); 0.2 M 2,2-dimethyl succinate buffer, pH 5, cooled at 4° C.) were added. 20 μl of detection solution (125 μM Amplex Red™ reagent (20 mM stock solution in 100% DMSO), 2.5 U/ml horseradish peroxidase, 62.5 mM sodium phosphate buffer, pH 7.4) were added to the mixture. The mixture was incubated for 9 hours at 30° C. Then, the increase in fluorescence was measured at λ=550 nm (absorption) and λ=595 nm (emission), the results of a measurement in the presence of Bay-CA95 cells being compared with the results of a measurement in the presence of the wild-type U. maydis 518 cells (see also FIG. 15). The substances used in the assay were present in the following final concentrations: c(2,2-dimethyl succinate/NaOH)=40 mM, c(Amplex Red® (Molecular Probes))=50 μM, c(horseradish peroxidase)=0.001 U/μl, c(methylglyoxal)=10 mM, OD (Bay-CA95)=1, c(sodium phosphate buffer)=25 mM. The inhibitory effect of a candidate compound could be seen from the decrease in relative fluorescence, and inhibitors were identified. […] Table II also gives pI50 values which have been determined for the individual compounds. The pI50 value is the negative decimal logarithm of what is known as the IC50 value, which indicates the molar concentration of a substance which leads to 50% inhibition of the enzyme. For example, a pI50 value of 8 corresponds to half the maximum inhibition of the enzyme at a concentration of 10 nM.

The next test relates to Venturia inaequalis. The test is described as follows: Venturia inaequalis (apple scab) protective test on young plants. To be noted: protective action, concentration of 250 ppm; 0% = control, 100% = no disease observed. The format is in vivo. Here is the method:
The antifungal action of the compounds (protective action) was tested, inter alia, on Venturia inaequalis as an example. This fungus causes what is known as apple scab, which leads to black and green mottled leaves in pomaceous fruit trees. The lesions enlarge and coalesce. Leaves which are severely infested die, which may lead to the trees losing all their leaves in summer. The infection also has an adverse effect on fruit set. Scab on fruits manifests itself in grey lesions on the skin, with suberification and deformed fruits.
To prepare a suitable preparation of active compound, 1 part by weight of active compound is mixed with, for example, 24.5 parts by weight of acetone and 24.5 parts by weight of dimethylformamide and 1.0 part by weight of alkylaryl polyglycol ether as emulsifier, and the concentrate is diluted with water to the desired concentration.
To test for protective activity, young plants are sprayed with the preparation of the active compound at the application rate stated. After the spray coating has dried on, the plants are inoculated with an aqueous conidial suspension of the apple scab pathogen Venturia inaequalis and then remain in an incubation cabinet for 1 day at approximately 20° C. and 100% relative atmospheric humidity. […]
1 to 12 days post-inoculation, the test is evaluated. […]

The values that follow come from patent publication US20030140370A1, “Fungal glyoxal oxidases” (priority 2001, published 2003).

Chain of glyoxal oxidase (Glo1) (Q7Z868 entry or part of it): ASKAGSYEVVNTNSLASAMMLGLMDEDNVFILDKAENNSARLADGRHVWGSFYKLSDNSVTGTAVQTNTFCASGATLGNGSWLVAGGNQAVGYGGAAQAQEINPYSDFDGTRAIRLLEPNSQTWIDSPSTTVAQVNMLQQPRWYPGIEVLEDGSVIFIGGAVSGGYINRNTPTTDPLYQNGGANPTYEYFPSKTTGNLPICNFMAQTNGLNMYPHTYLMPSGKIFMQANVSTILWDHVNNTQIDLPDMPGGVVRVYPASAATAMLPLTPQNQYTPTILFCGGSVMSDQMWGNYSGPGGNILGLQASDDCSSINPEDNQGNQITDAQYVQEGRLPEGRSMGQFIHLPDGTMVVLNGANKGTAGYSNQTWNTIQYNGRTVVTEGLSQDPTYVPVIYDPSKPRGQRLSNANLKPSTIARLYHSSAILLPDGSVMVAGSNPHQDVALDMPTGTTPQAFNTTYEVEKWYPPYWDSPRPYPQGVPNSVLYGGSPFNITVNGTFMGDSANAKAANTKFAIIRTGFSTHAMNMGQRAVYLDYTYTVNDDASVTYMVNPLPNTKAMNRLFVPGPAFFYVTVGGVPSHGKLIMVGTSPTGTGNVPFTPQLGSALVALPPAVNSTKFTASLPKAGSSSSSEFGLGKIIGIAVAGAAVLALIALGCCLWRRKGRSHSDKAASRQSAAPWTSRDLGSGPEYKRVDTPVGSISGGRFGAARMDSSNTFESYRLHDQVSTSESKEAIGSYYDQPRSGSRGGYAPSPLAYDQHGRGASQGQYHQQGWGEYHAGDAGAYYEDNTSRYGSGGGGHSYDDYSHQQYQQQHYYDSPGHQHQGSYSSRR

For `COc1ccc(NCc2ccccc2O)cc1` [Example 5], the IC50 on glyoxal oxidase (Glo1) is 3.98 µM. Still for that read-out and setting: the value for `COc1ccc(C(=O)Nc2ccccc2)cc1N` [Example 1] was 11 µM.

Consider `C[Si](C)(C)O[Si](C)(CCCNC(=O)/C=C\c1cc(OC(O)C(O)C(O)C(O)CO)c(O)cc1O)O[Si](C)(C)C` (stereo not drawn) [Example 4], for which the IC50 on glyoxal oxidase (Glo1) was 3.8 µM. In the test on Venturia inaequalis, this compound yielded an efficacy of 45%. As for `CCOc1ccc(NCc2ccccc2O)cc1` [Example 2], the IC50 on glyoxal oxidase (Glo1) is 4.07 µM.

Regarding `Nc1ccc(Oc2ccc(N)cc2)cc1` [Example 3], the IC50 at glyoxal oxidase (Glo1) is 5.62 µM.
